Measured values: patent US20100204187A1, “Purine Derivatives” (priority 2007, published 2010)

test system: C57BL/6J mice; experiment: Delayed-type hypersensitivity response (DTH), footpad swelling after sheep red blood cell challenge (Biological Assay 2); type: in vivo; settings: administered orally (p.o. once daily during sensitization and challenge phases), male C57BL/6J mice
Protocol: Delayed-Type Hypersensitivity Response (DTH)
This assay was performed essentially as disclosed in Kudlacz E. et al, see supra. Male C57BL/6J mice received i.v. injections of 1×10^5 sheep red blood cells in a volume of 0.2 mL sterile phosphate buffered saline (PBS). Four days later, sensitized mice received an injection of 1×10^8 sheep red blood cells in a volume of 30 μL sterile PBS into the left footpad. Twenty-four hours later, animals were sacrificed and their footpads removed and weighted. The DTH swelling response was calculated by subtracting the right footpad weight (baseline) from that of the left footpad (experimental). Test compounds or vehicle (0.2% carboxymethylcellulose and 1% Tween 80 in water) were administered p.o. once daily during both sensitization and challenge phases of the DTH response. Compounds of examples 1 cc, 1cr, 1ct, 5u, 10h and 10p were active in this assay when administered orally.

| SMILES | activity in DTH swelling response assay |
| --- | --- |
| COc1ccc(Nc2nc(-c3ccc(NC(C)=O)cc3)c3nc[nH]c3n2)cc1S(N)(=O)=O [Example 1 cc, 6-(4-acetylamino)phenyl-2-(4-methoxy-3-aminosulfonylphenyl)amino-9H-purine] | active |
| COc1ccc(Nc2nc(-c3cccc(S(C)(=O)=O)c3)c3nc[nH]c3n2)cc1OC [Example 1cr, 2-(3,4-dimethoxyphenyl)amino-6-(3-methanesulfonyl)phenyl-9H-purine] | active |
| CS(=O)(=O)c1cccc(-c2nc(Nc3ccc(CCO)cc3)nc3[nH]cnc23)c1 [Example 1ct] | active |
| CCCN(C)c1ccc(-c2nc(Nc3ccc(N4CCOCC4)cc3)nc3[nH]cnc23)cn1 [Example 5u, 6-[(6-N-methylpropylamino)pyridin-3-yl]-2-[4-(4-morpholino)phenyl]amino-9H-purine] | active |
